# Patent publication US8946299B2, “Use of calixarenes associated with an antibiotic in the treatment of bacterial infections” (Universite de Lorraine, priority 2011, dated 2015)
# How the values were obtained:
# [1] = system: mucoid strain of Pseudomonas aeruginosa having a resistance to rifampicin and the trimethoprim-sulphamethoxazole combination (PaR5); assay: Chessboard technique: MICs alone and synergism of Cx1 combinations; format: cell-based; conditions: antibiotic used alone; second figure of the cell; n = 4
# From the text: (§1) Three reference strains were used, corresponding to those studied for the MICs and MBCs (Minimum Bactericidal Concentration): Escherichia coli ATCC 25922, Staphylococcus aureus ATCC 29213, Pseudomonas aeruginosa ATCC 27853. For each of these strains 3 corresponding clinical isolates were chosen, having various antibiotic-resistance profiles, routinely used in standard fashion: • EcR1, EcR2, EcR3; • SaR1, SaR3, SaR4; • PaR2, PaR3, PaR5.
# (§2) 1.3. Procedure: Chessboard Technique
# (§3) The bacterial suspension is transferred to a 15 mL Falcon tube, centrifuged for 10 min at 4500 g, then the pellet is re-suspended in 1 mL of sterile distilled water. Suitable dilutions are then prepared in order to obtain a bacterial inoculum between 5·10^5 and 5·10^6 CFU/mL.
# (§4) The MICs of the antibiotics were previously determined for each strain, by the method of microdilution in a liquid medium (CLSI (Clinical and Laboratory Standards Institute), 2003).
# (§5) The same procedure is followed for the Cx1. […] Thus 64 ATB/Cx1 combinations are obtained.
# (§6) The final volume contained in each of the wells must be 100 μL. Two controls must be present on each plate: • column 1 and 12: medium control • column 2 and 11: medium+bacteria control
# (§7) Cx1: […] in the wells of […], starting with the lowest concentration.
# (§8) ATB: 25 μL in the wells of rows H to A (columns 3 to 11), starting with the lowest concentration.
# (§9) 50 μL in each of the wells of columns 2 to 11.
# (§10) D2: Reading the Turbidity at 540 Nm.
# (§11) The FIC (Fractional Inhibitory Concentration Index) value is determined by the following formula:
# (§12) [formula] MICA in combination MICA alone MICB in combination MICB alone
# (§13) When FIC≦0.5, there is a synergistic effect between antibiotic A and antibiotic B.
# (§14) When 0.5<FIC≦1, there is an additive effect between antibiotic A and antibiotic B.
# (§15) When 1<FIC≦4, there is an indifferent effect between antibiotic A and antibiotic B.
# (§16) When FIC>4, there is an antagonistic effect between antibiotic A and antibiotic B.
# (§17) For each strain and each antibiotic/Cx1 combination, the experiments were repeated a minimum of 3 times.
# [2] = system: Pseudomonas aeruginosa strain ATCC 27853 (wild type); assay: as above; format: cell-based; conditions: antibiotic used alone; second figure of the cell; n = 4
# From the text: as §1, §2, §3, §4, §5, §6, §7, §8, §9, §10, §11, §12, §13, §14, §15, §16, §17
# [3] = system: Pseudomonas aeruginosa strain having a resistance to β-lactams (including the carbapenems), aminoglycosides, the trimethoprim-sulphamethoxazole combination and …; assay: as above; format: cell-based; conditions: antibiotic used alone; second figure of the cell; n = 4
# From the text: as §1, §2, §3, §4, §5, §6, §7, §8, §9, §10, §11, §12, §13, §14, §15, §16, §17
# [4] = system: EcR3: ESBL-Producing Escherichia coli; assay: Antibiogram by the disk diffusion technique; format: cell-based; conditions: Table C1; strain EcR3
# Procedure: 5.3 EcR3: ESBL-Producing Escherichia coli with Associated Resistance to the Aminoglycosides, Rifampicin and the Trimethoprim-Sulphamethoxazole Combination
# The bacterial and antibiogram identification is carried out by the VITEK 2 system (bioMérieux) and by the disk diffusion technique
# [5] = system: EcR1: Penicillinase-Producing Escherichia coli without Associated Resistance; assay: Antibiogram by the disk diffusion technique; format: cell-based; conditions: for Results (diameter): Table A1, category from diameter vs Dmin Dmax; for Diameter: Table A1, disk diffusion
# Procedure: (§18) 5. Identification and Antibiogram 5.1 EcR1: Penicillinase-Producing Escherichia coli without Associated Resistance
# (§19) The bacterial and antibiogram identification is carried out by the VITEK 2 system (bioMérieux) and by the disk diffusion technique.
# [6] = system: PaR2: Pseudomonas aeruginosa; format: cell-based; conditions: Table G1; strain PaR2
# Procedure: (§20) 5.7 PaR2: Pseudomonas aeruginosa Having an Associated Resistance to the β-Lactams, the Trimethoprim-Sulphamethoxazole Combination and Fosfomycin The bacterial and antibiogram identification is carried out by the VITEK 2 system (bioMérieux) and by the disk diffusion technique
# [7] = system: PaR5: Pseudomonas aeruginosa; assay: Antibiogram by the disk diffusion technique; format: cell-based; design: unit not given here; conditions: Table I1; strain PaR5
# [8] = system: Pseudomonas aeruginosa strain having a resistance to β-lactams, the trimethoprim-sulphamethoxazole combination and fosfomycin (PaR2); format: cell-based; conditions: antibiotic used alone; second figure of the cell; n = 4
# From the text: as §1, §2, §3, §4, §5, §6, §7, §8, §9, §10, §11, §12, §13, §14, §15, §16, §17
# [9] = system: SaR4: Meticillin-Resistant Staphylococcus aureus; assay: Antibiogram by the disk diffusion technique; format: cell-based; conditions: Table F2; strain SaR4; diameters
# Procedure: 5.6 SaR4: Meticillin-Resistant Staphylococcus aureus Having an Associated Resistance to the Aminoglycosides, Fluoroquinolones, Macrolides-Lincosamines-Synergistins and Ofloxacin The bacterial and antibiogram identification is carried out by the VITEK 2 system (bioMérieux) and by the disk diffusion technique
# as §20
# [10] = system: ESBL-producing strain of Escherichia coli (EcR3); assay: Chessboard technique: MICs alone and synergism of Cx1 combinations; format: cell-based; conditions: antibiotic used alone; second figure of the cell; n = 4
# From the text: as §1, §2, §3, §4, §5, §6, §7, §8, §9, §10, §11, §12, §13, §14, §15, §16, §17
# [11] = system: Escherichia coli strain ATCC 25922 (wild type); assay: as above; format: cell-based; conditions: antibiotic used alone; second figure of the cell; n = 4
# From the text: as §1, §2, §3, §4, §5, §6, §7, §8, §9, §10, §11, §12, §13, §14, §15, §16, §17
# [12] = system: Staphylococcus aureus strain ATCC 29213 (wild type); assay: as above; format: cell-based; conditions: antibiotic used alone; second figure of the cell; n = 4
# From the text: as §1, §2, §3, §4, §5, §6, §7, §8, §9, §10, §11, §12, §13, §14, §15, §16, §17
# [13] = system: penicillinase-producing strain of Escherichia coli without associated resistance (EcR1); assay: as above; format: cell-based; conditions: antibiotic used alone; second figure of the cell; n = 4
# From the text: as §1, §2, §3, §4, §5, §6, §7, §8, §9, §10, §11, §12, §13, §14, §15, §16, §17
# [14] = system: cephalosporinase-hyperproducing strain of Escherichia coli (EcR2); assay: as above; format: cell-based; conditions: antibiotic used alone; second figure of the cell; n = 4
# From the text: as §1, §2, §3, §4, §5, §6, §7, §8, §9, §10, §11, §12, §13, §14, §15, §16, §17
# [15] = system: MRSA strain having a resistance to the aminoglycosides, fluoroquinolones, macrolides-lincosamides-synergistins and ofloxacin (SaR4); assay: as above; format: cell-based, Staphylococcus aureus; conditions: antibiotic used alone; second figure of the cell; n = 4
# From the text: as §1, §2, §3, §4, §5, §6, §7, §8, §9, §10, §11, §12, §13, §14, §15, §16, §17
# [16] = system: MRSA strain having a resistance to the aminoglycosides and fluoroquinolones (SaR3); assay: as above; format: cell-based, Staphylococcus aureus; conditions: antibiotic used alone; second figure of the cell; n = 4
# From the text: as §1, §2, §3, §4, §5, §6, §7, §8, §9, §10, §11, §12, §13, §14, §15, §16, §17
# [17] = system: MRSA strain without associated resistance (SaR1); assay: as above; format: cell-based, Staphylococcus aureus; conditions: antibiotic used alone; second figure of the cell; n = 4
# From the text: as §1, §2, §3, §4, §5, §6, §7, §8, §9, §10, §11, §12, §13, §14, §15, §16, §17
# [18] = system: EcR1: Penicillinase-Producing Escherichia coli without Associated Resistance; assay: Antibiogram, MIC by the VITEK 2 system; format: cell-based; conditions: Table A1, category from MIC
# Procedure: as §18, §19
# [19] = system: Escherichia coli, Staphylococcus aureus and Pseudomonas aeruginosa strains; assay: Chessboard technique, summary over all strains and combinations tested; format: cell-based
# From the text: as §1, §2
# The FIC (Fractional Inhibitory Concentration Index) value is determined by the following formula: […]
# as §17
# [20] = system: SaR3: Meticillin-Resistant Staphylococcus aureus; assay: Antibiogram by the disk diffusion technique; format: cell-based; conditions: Table E1; strain SaR3
# [21] = system: SaR1: Meticillin-Resistant Staphylococcus aureus without Associated Resistance; assay: Antibiogram by the VITEK 2 system; format: cell-based; conditions: Table D1; strain SaR1
# Procedure: 5.4 SaR1: Meticillin-Resistant Staphylococcus aureus without Associated Resistance
# The bacterial and antibiogram identification is carried out by the VITEK 2 system (bioMérieux)
# February 2006: Detection of the gene mecA by the PCR technique: POSITIVE Expert finding July 2006: totally typical phenotype: modification of the PLPs The fluctuations relative to the type of associated resistance for certain strains between Tables D1 and D2 are due to the development of the French (CA-SFM), European (EUCAST) and American (CLSI) recommendations for the categorization of bacterial strains. 5.5 SaR3: Meticillin-Resistant Staphylococcus aureus Having an Associated Resistance to the Aminoglycosides and Fluoroquinolones The bacterial and antibiogram identification is carried out by the VITEK 2 system (bioMérieux) and by the disk diffusion technique
molecule,measurement,setting,value
Colimycin,MIC (antibiotic),[1],16 µg/mL
same,MIC (antibiotic),[2],4 µg/mL
same,MIC (antibiotic),[3],8 µg/mL
same,Diameter,[4],16
same,Results (diameter),[5],Susceptible
same,Diameter,[5],15
same,diameter in mm,"[5]; Table A2, diameter",15 mm
same,Diameter,[6],20
same,Diameter,[7],23
same,MIC (antibiotic),[8],8 µg/mL
NC[C@H]1O[C@H](O[C@H]2[C@H](O)[C@@H](O[C@H]3O[C@H](CO)[C@@H](O)[C@H](N)[C@H]3O)[C@H](N)C[C@@H]2N)[C@H](O)[C@@H](O)[C@@H]1O [Kanamycin],diameter in mm,[9],7 mm
Gentamicin,Initial MICs (antibiotic),[10],2/2 mg/L
same,Initial MICs (antibiotic),[11],0.125 mg/L
same,Initials MIC (antibiotic),[12],0.25 µg/mL
same,Initial MICs (antibiotic),[13],0.125 mg/L
same,Initial MICs (antibiotic),[14],2/2 mg/L
same,MIC (antibiotic),[15],0.25 µg/mL
same,MIC (antibiotic),[16],0.125 µg/mL
same,MIC (antibiotic),[17],0.25 µg/mL
same,Results (MIC),[18],Susceptible
same,Results (diameter),[5],Susceptible
same,Diameter,[5],20
same,Diameter,[7],25
same,nature of the interaction between Cx1 and the antibiotic,[19],synergism
same,Diameter,[20],20
same,Diameter,[21],23
CCn1cc(C(=O)O)c(=O)c2cc(F)c(N3CCNCC3)cc21 [Norofloxacin],Diameter,[7],17
